{"source": "paper PMC5218480", "about": "(PLoS ONE, 2017)", "test_system": "MV-4-11 cells", "experiment": "Gene expression microarray analysis (Affymetrix PrimeView) and GSEA", "format": "cell-based, human", "parameters": "RFU PODN (11730768_x_at) / Fold change /veh PODN (11730768_x_at) / RFU LINC00158 (11744669_a_at) / Fold change /veh LINC00158 (11744669_a_at) / RFU DUSP10 (11751237_a_at) / Fold change /veh DUSP10 (11751237_a_at) / RFU ID3 (11757404_x_at) / Fold change /veh ID3 (11757404_x_at) / RFU PLEKHG5 (11737974_s_at) / Fold change /veh PLEKHG5 (11737974_s_at) / RFU LRRC4B (11730491_at) / Fold change /veh LRRC4B (11730491_at) / RFU GIMAP4 (11747438_a_at) / Fold change /veh GIMAP4 (11747438_a_at) / RFU KRT8 (11758183_x_at) / Fold change /veh KRT8 (11758183_x_at) / RFU CNN1 (11734310_a_at) / Fold change /veh CNN1 (11734310_a_at) / RFU VPS37D (11726825_at) / Fold change /veh VPS37D (11726825_at) / RFU C10orf10 (11716522_x_at) / Fold change /veh C10orf10 (11716522_x_at) / RFU KIR2DL2 /// KIR2DL4 /// KIR2DL5A /// KIR2DL5B /// KIR2DS1 /// KIR2DS2 /// KIR2DS3 /// KIR2DS4 /// KIR3DL3 /// KIR3DL3 /// KIR3DS1 (11738374_at) / Fold change /veh KIR2DL2 /// KIR2DL4 /// KIR2DL5A /// KIR2DL5B /// KIR2DS1 /// KIR2DS2 /// KIR2DS3 /// KIR2DS4 /// KIR3DL3 /// KIR3DL3 /// KIR3DS1 (11738374_at) / RFU C1QL1 (11718748_at) / Fold change /veh C1QL1 (11718748_at) / RFU TMPRSS4 (11747572_a_at) / Fold change /veh TMPRSS4 (11747572_a_at) / RFU HAMP (11756126_x_at) / Fold change /veh HAMP (11756126_x_at) / RFU RNFT2 (11725882_a_at) / Fold change /veh RNFT2 (11725882_a_at) / RFU NR4A2 (11747474_a_at) / Fold change /veh NR4A2 (11747474_a_at) / RFU ABCC12 (11746883_a_at) / Fold change /veh ABCC12 (11746883_a_at) / RFU TMEM136 (11760407_x_at) / Fold change /veh TMEM136 (11760407_x_at) / RFU CLDN22 /// WWC2 (11732394_at) / Fold change /veh CLDN22 /// WWC2 (11732394_at) / RFU HLA-DPB1 (11760878_x_at) / Fold change /veh HLA-DPB1 (11760878_x_at) / RFU SPINT1 (11716480_a_at) / Fold change /veh SPINT1 (11716480_a_at) / RFU GAP43 (11754022_s_at) / Fold change /veh GAP43 (11754022_s_at) / RFU A4GNT (11735810_at) / Fold change /veh A4GNT (11735810_at) / RFU PRB3 (11715151_x_at) / Fold change /veh PRB3 (11715151_x_at) / RFU TUBB4B (11761932_at) / Fold change /veh TUBB4B (11761932_at) / RFU CAPN14 (11732068_a_at) / Fold change /veh CAPN14 (11732068_a_at) / RFU TMCC2 (11721928_a_at) / Fold change /veh TMCC2 (11721928_a_at) / RFU IRGQ (11745062_a_at) / Fold change /veh IRGQ (11745062_a_at) / RFU FAM174B (11720279_a_at) / Fold change /veh FAM174B (11720279_a_at) / RFU TMPRSS4 (11748680_a_at) / Fold change /veh TMPRSS4 (11748680_a_at) / RFU FAM212B (11763350_a_at) / Fold change /veh FAM212B (11763350_a_at) / RFU PLEKHG5 (11743358_a_at) / Fold change /veh PLEKHG5 (11743358_a_at) / RFU ZSCAN30 (11745921_a_at) / Fold change /veh ZSCAN30 (11745921_a_at) / RFU CMKLR1 (11741424_a_at) / Fold change /veh CMKLR1 (11741424_a_at) / RFU LOC101060620 /// MAPK8IP1 (11723275_at) / Fold change /veh LOC101060620 /// MAPK8IP1 (11723275_at) / RFU SPTSSB (11747773_x_at) / Fold change /veh SPTSSB (11747773_x_at) / RFU PRSS12 (11739890_at) / Fold change /veh PRSS12 (11739890_at) / RFU BIN1 (11741810_x_at) / Fold change /veh BIN1 (11741810_x_at) / RFU WNT11 (11732464_a_at) / Fold change /veh WNT11 (11732464_a_at) / RFU C10orf10 (11716521_a_at) / Fold change /veh C10orf10 (11716521_a_at) / RFU C5orf56 (11738089_at) / Fold change /veh C5orf56 (11738089_at) / RFU CYB561 (11721691_x_at) / Fold change /veh CYB561 (11721691_x_at) / RFU ANKRD19P (11752326_a_at) / Fold change /veh ANKRD19P (11752326_a_at) / RFU OR2T12 /// OR2T33 /// OR2T8 (11738714_s_at) / Fold change /veh OR2T12 /// OR2T33 /// OR2T8 (11738714_s_at) / RFU VCAN (11748164_a_at) / Fold change /veh VCAN (11748164_a_at) / RFU JSRP1 (11732532_at) / Fold change /veh JSRP1 (11732532_at) / RFU KRTAP10-11 (11738290_x_at) / Fold change /veh KRTAP10-11 (11738290_x_at) / RFU MYO3A (11730013_a_at) / Fold change /veh MYO3A (11730013_a_at) / RFU EBF3 (11725865_a_at) / Fold change /veh EBF3 (11725865_a_at) / RFU CAMK2N1 (11719241_x_at) / Fold change /veh CAMK2N1 (11719241_x_at) / RFU C5orf56 (11738088_a_at) / Fold change /veh C5orf56 (11738088_a_at) / RFU OLFML3 (11715873_a_at) / Fold change /veh OLFML3 (11715873_a_at) / RFU LOC100653217 /// NTM (11731650_a_at) / Fold change /veh LOC100653217 /// NTM (11731650_a_at) / RFU MAPK11 (11762145_a_at) / Fold change /veh MAPK11 (11762145_a_at) / RFU FIZ1 (11724087_x_at) / Fold change /veh FIZ1 (11724087_x_at) / RFU OASL (11726364_x_at) / Fold change /veh OASL (11726364_x_at) / RFU SOX15 (11748057_x_at) / Fold change /veh SOX15 (11748057_x_at) / RFU CD79A (11719716_a_at) / Fold change /veh CD79A (11719716_a_at) / RFU HIST1H1D (11736915_at) / Fold change /veh HIST1H1D (11736915_at) / RFU CASKIN2 (11723855_a_at) / Fold change /veh CASKIN2 (11723855_a_at) / RFU LOC730098 (11760151_x_at) / Fold change /veh LOC730098 (11760151_x_at) / RFU OR4N2 (11742367_at) / Fold change /veh OR4N2 (11742367_at) / RFU PRRT2 (11749266_a_at) / Fold change /veh PRRT2 (11749266_a_at) / RFU SNX32 (11753110_a_at) / Fold change /veh SNX32 (11753110_a_at) / RFU CDHR5 (11726645_a_at) / Fold change /veh CDHR5 (11726645_a_at) / RFU RCAN1 (11760418_a_at) / Fold change /veh RCAN1 (11760418_a_at) / RFU FAM167A (11723789_a_at) / Fold change /veh FAM167A (11723789_a_at) / RFU FAM26E (11764081_at) / Fold change /veh FAM26E (11764081_at) / RFU ISYNA1 (11749810_s_at) / Fold change /veh ISYNA1 (11749810_s_at) / RFU ACY1 (11761880_at) / Fold change /veh ACY1 (11761880_at) / RFU 11764098_at / Fold change /veh 11764098_at / RFU SAMD14 (11745864_x_at) / Fold change /veh SAMD14 (11745864_x_at) / RFU NPB (11741838_a_at) / Fold change /veh NPB (11741838_a_at) / RFU TMPRSS6 (11731388_a_at) / Fold change /veh TMPRSS6 (11731388_a_at) / RFU KRTAP10-2 (11738614_at) / Fold change /veh KRTAP10-2 (11738614_at) / RFU ARHGAP8 /// PRR5-ARHGAP8 (11727945_x_at) / Fold change /veh ARHGAP8 /// PRR5-ARHGAP8 (11727945_x_at) / RFU KRTAP5-7 /// NADSYN1 (11734609_at) / Fold change /veh KRTAP5-7 /// NADSYN1 (11734609_at) / RFU RASL12 (11751679_a_at) / Fold change /veh RASL12 (11751679_a_at) / RFU CDKN2B (11736163_a_at) / Fold change /veh CDKN2B (11736163_a_at) / RFU PRF1 (11729649_at) / Fold change /veh PRF1 (11729649_at) / RFU, ZNF638 /// ZNF638-IT1 / Fold change vs veh, ZNF638 /// ZNF638-IT1 / RFU, PANK3 / Fold change vs veh, PANK3 / RFU, SH3YL1 / Fold change vs veh, SH3YL1 / RFU, ZEB2 / Fold change vs veh, ZEB2 / RFU, NRIP1 / Fold change vs veh, NRIP1 / RFU, PTTG1IP / Fold change vs veh, PTTG1IP / RFU, CAPN2 / Fold change vs veh, CAPN2 / RFU, MED14 / Fold change vs veh, MED14 / RFU, SNORA58 / Fold change vs veh, SNORA58 / RFU, C1orf63 / Fold change vs veh, C1orf63 / RFU, LRRFIP1 / Fold change vs veh, LRRFIP1 / RFU, NDUFAF7 / Fold change vs veh, NDUFAF7 / RFU, SLC12A2 / Fold change vs veh, SLC12A2 / RFU, IBTK / Fold change vs veh, IBTK / RFU, ESF1 / Fold change vs veh, ESF1 / Fold change vs veh, TMEM50B / RFU, TAOK1 / Fold change vs veh, TAOK1 / RFU, ACBD3 / Fold change vs veh, ACBD3 / RFU, TMA16 / Fold change vs veh, TMA16 / RFU, RWDD3 / Fold change vs veh, RWDD3 / RFU, BCAT1 / Fold change vs veh, BCAT1 / RFU, EDEM3 / Fold change vs veh, EDEM3 / RFU, TMEM33 / Fold change vs veh, TMEM33 / RFU, WDR75 / Fold change vs veh, WDR75 / RFU, AHCTF1 / Fold change vs veh, AHCTF1 / RFU, TFRC / Fold change vs veh, TFRC / RFU, ZDHHC17 / Fold change vs veh, ZDHHC17 / RFU, NOM1 / Fold change vs veh, NOM1 / RFU, ARL8B / Fold change vs veh, ARL8B / RFU, ZBTB11 / Fold change vs veh, ZBTB11 / RFU, TAMM41 / Fold change vs veh, TAMM41 / RFU, KIAA1704 /// LOC100996395 / Fold change vs veh, KIAA1704 /// LOC100996395 / RFU, ING1 / Fold change vs veh, ING1 / RFU, TRMT61B / Fold change vs veh, TRMT61B / RFU, FUBP3 / Fold change vs veh, FUBP3 / RFU, TP53 / Fold change vs veh, TP53 / RFU, TNKS2 / Fold change vs veh, TNKS2 / RFU, ZFP14 / Fold change vs veh, ZFP14 / RFU, ACTR2 / Fold change vs veh, ACTR2 / RFU, PPP3R1 / Fold change vs veh, PPP3R1 / RFU, PIK3R1 / Fold change vs veh, PIK3R1 / RFU, HNRNPA1 / Fold change vs veh, HNRNPA1 / RFU, RNF170 / Fold change vs veh, RNF170 / RFU, ZNF28 / Fold change vs veh, ZNF28 / RFU, RNGTT / Fold change vs veh, RNGTT / RFU, OGT / Fold change vs veh, OGT / RFU, BRD1 / Fold change vs veh, BRD1 / RFU, MARS / Fold change vs veh, MARS / RFU, ZNF655 / Fold change vs veh, ZNF655 / RFU, FAHD1 / Fold change vs veh, FAHD1 / RFU, BDP1 / Fold change vs veh, BDP1 / RFU, LRRCC1 / Fold change vs veh, LRRCC1 / RFU, ARID1A / Fold change vs veh, ARID1A / RFU, ZNF146 / Fold change vs veh, ZNF146 / RFU, ZNF330 / Fold change vs veh, ZNF330 / RFU, GPN3 / Fold change vs veh, GPN3 / RFU, C9orf123 / Fold change vs veh, C9orf123 / RFU, N4BP2L2 / Fold change vs veh, N4BP2L2 / RFU, ARFIP1 / Fold change vs veh, ARFIP1 / RFU, FAM179B / Fold change vs veh, FAM179B / RFU, BCL10 / Fold change vs veh, BCL10 / RFU, UHRF1BP1L / Fold change vs veh, UHRF1BP1L / RFU, BET1 / Fold change vs veh, BET1 / RFU, CNOT2 / Fold change vs veh, CNOT2 / RFU, ZNF268 / Fold change vs veh, ZNF268 / Fold change vs veh, ZNF507 / RFU, DGCR2 / Fold change vs veh, DGCR2 / RFU, WDSUB1 / Fold change vs veh, WDSUB1 / Fold change vs veh, HSP90B1 /// MIR3652 / RFU, ADSS / Fold change vs veh, ADSS / RFU, GK / Fold change vs veh, GK / RFU, ZNF148 / Fold change vs veh, ZNF148 / RFU, TAF9 / Fold change vs veh, TAF9 / RFU, SLC1A5 / Fold change vs veh, SLC1A5 / RFU, SLMO2 / Fold change vs veh, SLMO2 / RFU, ABCC4 / Fold change vs veh, ABCC4 / RFU, LOC101060439 /// RAP1B / Fold change vs veh, LOC101060439 /// RAP1B / RFU, RFX7 / Fold change vs veh, RFX7 / RFU, GTPBP10 / Fold change vs veh, GTPBP10 / RFU, CNEP1R1 / Fold change vs veh, CNEP1R1 / RFU, BIVM-ERCC5 /// ERCC5 / Fold change vs veh, BIVM-ERCC5 /// ERCC5 / RFU, ILF3 / Fold change vs veh, ILF3 / RFU 11762660_at / Fold change /veh 11762660_at / RFU VCAN (11757783_s_at) / Fold change /veh VCAN (11757783_s_at) / RFU DDX43 (11728927_at) / Fold change /veh DDX43 (11728927_at) / RFU KRT8 (11758188_x_at) / Fold change /veh KRT8 (11758188_x_at) / RFU NKD1 (11759106_at) / Fold change /veh NKD1 (11759106_at) / RFU SRD5A1 (11742802_a_at) / Fold change /veh SRD5A1 (11742802_a_at) / RFU TPSAB1 /// TPSB2 (11721975_s_at) / Fold change /veh TPSAB1 /// TPSB2 (11721975_s_at) / RFU GSTM3 (11746129_a_at) / Fold change /veh GSTM3 (11746129_a_at) / RFU IL23R (11737362_x_at) / Fold change /veh IL23R (11737362_x_at) / RFU TMEM51 (11727254_a_at) / Fold change /veh TMEM51 (11727254_a_at) / RFU PIWIL2 (11732686_x_at) / Fold change /veh PIWIL2 (11732686_x_at) / RFU ORM1 (11744905_x_at) / Fold change /veh ORM1 (11744905_x_at) / RFU CCDC152 (11743942_at) / Fold change /veh CCDC152 (11743942_at) / RFU ECM1 (11717891_a_at) / Fold change /veh ECM1 (11717891_a_at) / RFU IL23R (11748794_a_at) / Fold change /veh IL23R (11748794_a_at) / RFU TNFAIP8L3 (11732012_x_at) / Fold change /veh TNFAIP8L3 (11732012_x_at) / RFU MBOAT4 (11741988_at) / Fold change /veh MBOAT4 (11741988_at) / RFU 11764193_at / Fold change /veh 11764193_at / RFU TMEM53 (11763286_at) / Fold change /veh TMEM53 (11763286_at) / RFU MAGEB2 (11727129_at) / Fold change /veh MAGEB2 (11727129_at) / RFU TMEM200A (11744735_a_at) / Fold change /veh TMEM200A (11744735_a_at) / RFU CCDC152 (11751479_a_at) / Fold change /veh CCDC152 (11751479_a_at) / RFU FAM211A (11726209_a_at) / Fold change /veh FAM211A (11726209_a_at) / RFU RGS16 (11746705_a_at) / Fold change /veh RGS16 (11746705_a_at) / RFU VCAN (11755009_s_at) / Fold change /veh VCAN (11755009_s_at) / RFU RHOB (11743442_s_at) / Fold change /veh RHOB (11743442_s_at) / RFU RGS16 (11720943_a_at) / Fold change /veh RGS16 (11720943_a_at) / RFU RGS16 (11720944_at) / Fold change /veh RGS16 (11720944_at) / RFU, VPS4B / Fold change vs veh, VPS4B / RFU, CREB1 / Fold change vs veh, CREB1 / RFU, DNAJC13 / Fold change vs veh, DNAJC13 / RFU, GNAQ / Fold change vs veh, GNAQ / RFU, CDK5R1 / Fold change vs veh, CDK5R1 / RFU, ZRANB3 / Fold change vs veh, ZRANB3 / RFU, CUL4A / Fold change vs veh, CUL4A / RFU, CCNY / Fold change vs veh, CCNY / RFU, UFL1 / Fold change vs veh, UFL1 / RFU, COG3 / Fold change vs veh, COG3 / RFU, DIAPH2 / Fold change vs veh, DIAPH2 / RFU, SKA2 / Fold change vs veh, SKA2 / RFU, AFF3 / Fold change vs veh, AFF3 / RFU, LMF1 / Fold change vs veh, LMF1 / RFU, IPO11 / Fold change vs veh, IPO11 / RFU, DFFB / Fold change vs veh, DFFB / RFU, FOXP1 / Fold change vs veh, FOXP1 / RFU, CARD8 / Fold change vs veh, CARD8 / RFU, STRN3 / Fold change vs veh, STRN3 / RFU, ADK / Fold change vs veh, ADK / RFU, RASSF2 / Fold change vs veh, RASSF2 / RFU, WIPF1 / Fold change vs veh, WIPF1 / RFU, LARP1B / Fold change vs veh, LARP1B / RFU, RASA1 / Fold change vs veh, RASA1 / RFU, RB1 / Fold change vs veh, RB1 / RFU, PPFIA1 / Fold change vs veh, PPFIA1 / RFU, MAT2A / Fold change vs veh, MAT2A / RFU, CCT5 / Fold change vs veh, CCT5 / RFU, WDR92 / Fold change vs veh, WDR92 / RFU, CUX1 / Fold change vs veh, CUX1 / RFU, TTC7A / Fold change vs veh, TTC7A / RFU, TMEM135 / Fold change vs veh, TMEM135 / RFU, DEPTOR / Fold change vs veh, DEPTOR / RFU, CPM / Fold change vs veh, CPM / RFU, DNAJB6 / Fold change vs veh, DNAJB6 / RFU, CACNA2D3 / Fold change vs veh, CACNA2D3 / RFU, DTX4 / Fold change vs veh, DTX4 / RFU, TFCP2 / Fold change vs veh, TFCP2 / RFU, GMCL1 /// GMCL1P1 / Fold change vs veh, GMCL1 /// GMCL1P1 / RFU, AEBP2 / Fold change vs veh, AEBP2 / RFU, SNHG1 /// SNORD22 /// SNORD25 /// SNORD26 /// SNORD27 /// SNORD28 /// SNORD29 /// SNORD31 / Fold change vs veh, SNHG1 /// SNORD22 /// SNORD25 /// SNORD26 /// SNORD27 /// SNORD28 /// SNORD29 /// SNORD31 / Fold change (Aza/veh), C12orf56 (ProbeSet 11735607_a_at) / Fold change (ACY-1035/veh), C12orf56 (ProbeSet 11735607_a_at) / Fold change (Aza/veh), FGFR1OP (ProbeSet 11751329_s_at) / Fold change (ACY-1035/veh), FGFR1OP (ProbeSet 11751329_s_at) / Fold change (Aza/veh), VPS36 (ProbeSet 11739960_a_at) / Fold change (ACY-1035/veh), VPS36 (ProbeSet 11739960_a_at) / RFU SYPL1 (11715823_x_at) / Fold change /veh SYPL1 (11715823_x_at) / RFU IGFBP7 (11715501_s_at) / Fold change /veh IGFBP7 (11715501_s_at) / RFU REEP3 (11722064_at) / Fold change /veh REEP3 (11722064_at) / RFU IGLL1 (11728026_x_at) / Fold change /veh IGLL1 (11728026_x_at): dose or concentration left out as unconfirmed", "settings": "ProbeSet 11726661_s_at; LIST B", "data": [{"smiles": "Nc1ncn([C@@H]2O[C@H](CO)[C@@H](O)[C@H]2O)c(=O)n1", "note": "[azacitidine]", "values": [{"measurement": "RFU, GPN3", "value": 248.57, "unit": "RFU"}]}]}
